Assay results published in patent US12226386B2, “Compositions and methods for treating biofilms” (The Regents of the University of California, priority 2018, dated 2025).

Legend:
[1] = system: Candida and Staphylococcus biofilms; assay: biofilm assays (sustained inhibition and disruption), bacterial and fungal; assay type: cell-based, Candida albicans; Staphylococcus aureus; settings: in both assays (sustained inhibition and disruption)
Protocol: (§1) In vitro biofilm formation was tested using two assays, sustained inhibition and disruption. Both assays assess biofilm formed on polystyrene plates. The first, tests the effects of amino acid solution on a developing biofilm, while the latter tests the effects of the solution on a pre-formed mature biofilm, both compared to media without supplemented amino acids.
(§2) Other amino acids in the blood of animals could combat bacterial and fungal biofilm and therefore may be useful in treating these bacterial and fungal infections that would lie on the external surfaces of infected animals such as humans and could also be used to combat these pathogens on instruments and surfaces that need to be treated. Two types of biofilm assays were performed: a sustained inhibition assay and a disruption assay. The sustained inhibition assay assessed the compound's ability to prevent biofilm development throughout all stages of biofilm formation, while the disruption assay assessed the compound's ability to break up an existing mature biofilm.
(§3) For fungal biofilm assays, all solutions were prepared in RPMI 1640 medium. All bacterial biofilm solutions were prepared in Tryptic Soy Broth (TSB), supplemented with 1% glucose (henceforth referred to as TSB-G). All subsequent procedures were performed in a manner that maintained sterility. A solution of each amino acid to be tested was prepared in weight to volume concentrations ranging from 0.1-5.0%. Amino acids were also tested in combinations. Compound solutions were homogenized with gentle agitation in the dark (4° C., 24 hours) before use.
(§4) Fungal strains were streaked on Yeast Peptone Dextrose (YPD) agar plates and incubated at 30° C. for 48 hours. A single colony from each strain to be tested was inoculated into YPD broth and grown for 12 hours, at 30° C., shaking at 225 rpm. For the fungal biofilm inhibition assay, 1 μl of saturated overnight cell culture was added to either 80 μL of RPMI-1640 or RPMI-1640 supplemented with the amino acid compound solution to be tested, in a 384-well plate. The cells were allowed to adhere to the plate for 90 minutes at 37° C. shaking at 350 rpm. Loosely bound cells were washed once with phosphate buffered saline (PBS) and 80 μl of RPMI-1640, or RPMI-1640 supplemented with the amino acid compound solution was added to the plate. The plate was further incubated for 24 hours at 37° C. shaking at 350 rpm. Media was carefully aspirated and the biofilm was measured by optical density at 600 nm. Twelve replicates were performed for each tested condition and the reported values are normalized to the control (RPMI-1640 media only). For the fungal biofilm disruption assays, 80 μL of RPMI-1640 was added to the plate, along with 1 μL of overnight cell culture. The cells were allowed to adhere to the plate for 90 minutes at 37° C. shaking at 350 rpm. Loosely bound cells were washed once with PBS and 80 μL of RPMI-1640 was added to the plate. The plate was further incubated for 24 hours at 37° C. shaking at 350 rpm. Media was carefully aspirated from the mature biofilm and 80 μL of RPMI-1640, or RPMI-1640 supplemented with the amino acid compound solution to be tested, was gently added to the plate. The plate was further incubated for 24 hours at 37° C. shaking at 350 rpm. Media was carefully aspirated and the biofilm was measured by optical density at 600 nm. Twelve replicates were performed for each tested condition and the reported values are normalized to the control (RPMI-1640 media only).
Bacterial strains were streaked on Blood Agar plates (5% sheep blood in Tryptic Soy Agar) and incubated at 37° C. for 24 hours. A single colony from each strain to be tested was inoculated in a TSB broth and grown for 12 hours, at 37° C. shaking at 225 rpm. For the bacterial biofilm inhibition assays, 1 μL of saturated overnight cell culture was added to either 80 μL of TSB-G, or TSB-G supplemented with the amino acid compound solution to be tested, in a 384-well plate. […]

C. albicans biofilms [2] = assay: in vitro biofilm disruption assay, fungal; assay type: cell-based, Candida albicans; settings: 1% amino acid, p<0.001
Protocol: (§5) Two types of biofilm assays were performed: a sustained inhibition assay and a disruption assay.
as §3
as §4, with “The cells were allowed to adhere to the plate for 90 minutes at 37° C. shaking at 350 rpm. Loosely bound cells were washed once with phosphate buffered saline (PBS) and 80 μl of RPMI-1640, or RPMI-1640 supplemented with the amino acid compound solution was added to the plate. The plate was further incubated for 24 hours at 37° C. shaking at 350 rpm.” left out, “The cells were allowed to adhere to the plate for 90 minutes at 37° C. shaking at 350 rpm.” left out, “The plate was further incubated for 24 hours at 37° C. shaking at 350 rpm.” left out
The cells were allowed to adhere to the plate for 90 minutes at 37° C. with shaking (350 rpm). […] The plate was further incubated for 24 hours at 37° C. with shaking (350 rpm). […] The plate was further incubated for 24 hours at 37° C. with shaking (350 rpm). Media was carefully aspirated and the biofilm was measured by optical density at 600 nm.

[3] = system: S. aureus (MRSA) biofilms; assay: in vitro biofilm disruption assay, bacterial; assay type: cell-based; settings: Staphylococcus aureus, 24 h, disruption, S. aureus, 1% amino acid; for inhibition at 1 %: p<0.001, read-out: Reduce B Biofilm
Protocol: as §1, §2, §3
(§6) Bacterial strains were streaked on Blood Agar plates (5% sheep blood in Tryptic Soy Agar) and incubated at 37° C. for 24 hours. A single colony from each strain to be tested was inoculated in a TSB broth and grown for 12 hours, at 37° C. shaking at 225 rpm. For the bacterial biofilm inhibition assays, 1 μL of saturated overnight cell culture was added to either 80 μL of TSB-G, or TSB-G supplemented with the amino acid compound solution to be tested, in a 384-well plate. The cells were allowed to adhere to the plate for 60 minutes at 37° C. without shaking. The media was carefully aspirated and 80 μL of TSB-G, or TSB-G supplemented with the amino acid compound solution was added to the plate. The plate was further incubated for 24 hours at 37° C. without shaking. Media was carefully aspirated and the biofilm was measured by optical density at 600 nm. Eight or twelve replicates were performed for each tested condition and the reported values are normalized to the control (TSB-G media only). For the bacterial biofilm disruption assays, 80 μL of TSB-G was added to the plate, along with 1 μL of overnight cell culture. The cells were allowed to adhere to the plate for 60 minutes at 37° C. with no shaking. The media was carefully aspirated and 80 μL of TSB-G was added to the plate. The plate was further incubated for 24 hours at 37° C. with no shaking. Media was carefully aspirated from the mature biofilm and 80 μL of TSB-G, or TSB-G supplemented with the amino acid to be tested, was gently added to the plate. The plate was further incubated for 24 hours at 37° C. without shaking. Media was aspirated and the biofilm was measured by optical density at 600 nm. Twelve replicates were performed for each tested condition and the reported values are normalized to the control (TSB-G media only).
For disruption assay, 80 μl of TSB-G was added to the plate, along with 1 μl of overnight cell culture. The cells were allowed to adhere to the plate for 60 minutes at 37° C. with no shaking. The media was carefully aspirated and 80 μl of TSB-G was added to the plate. The plate was further incubated for 24 hours at 37° C. with no shaking. Media was carefully aspirated from the mature biofilm and 80 μl of TSB-G, or TSB-G supplemented with the amino acid to be tested, was added drop wise to the plate. The plate was further incubated for 24 hours at 37° C. with no shaking. […]

[4] = system: fungal biofilms (C. albicans); assay: biofilm assays (sustained inhibition and/or disruption), fungal; assay type: cell-based, Candida albicans; settings: in at least one of the two biofilm assays; for anti-biofilm properties against fungal biofilms: administered individually
Protocol: Other amino acids in the blood of animals could combat bacterial and fungal biofilm and therefore may be useful in treating these bacterial and fungal infections that would lie on the external surfaces of infected animals such as humans and could also be used to combat these pathogens on instruments and surfaces that need to be treated. Two types of biofilm assays were performed: a sustained inhibition assay and a disruption assay. The sustained inhibition assay assessed the compound's ability to prevent biofilm development throughout all stages of biofilm formation, while the disruption assay assessed the compound's ability to break up an existing mature biofilm. For fungal biofilm assays, all solutions were prepared in RPMI 1640 medium. All bacterial biofilm solutions were prepared in Tryptic Soy Broth (TSB), supplemented with 1% glucose (henceforth referred to as TSB-G). All subsequent procedures were performed in a manner that maintained sterility. […] Amino acids were also tested in combinations. Compound solutions were homogenized with gentle agitation in the dark (4° C., 24 hours) before use. Fungal strains were streaked on Yeast Peptone Dextrose (YPD) agar plates and incubated at 30° C. for 48 hours. A single colony from each strain to be tested was inoculated into YPD broth and grown for 12 hours, at 30° C., shaking at 225 rpm. For the fungal biofilm inhibition assay, 1 μl of saturated overnight cell culture was added to either 80 μL of RPMI-1640 or RPMI-1640 supplemented with the amino acid compound solution to be tested, in a 384-well plate. The cells were allowed to adhere to the plate for 90 minutes at 37° C. shaking at 350 rpm. Loosely bound cells were washed once with phosphate buffered saline (PBS) and 80 μl of RPMI-1640, or RPMI-1640 supplemented with the amino acid compound solution was added to the plate. The plate was further incubated for 24 hours at 37° C. shaking at 350 rpm. Media was carefully aspirated and the biofilm was measured by optical density at 600 nm. Twelve replicates were performed for each tested condition and the reported values are normalized to the control (RPMI-1640 media only). For the fungal biofilm disruption assays, 80 μL of RPMI-1640 was added to the plate, along with 1 μL of overnight cell culture. The cells were allowed to adhere to the plate for 90 minutes at 37° C. shaking at 350 rpm. Loosely bound cells were washed once with PBS and 80 μL of RPMI-1640 was added to the plate. The plate was further incubated for 24 hours at 37° C. shaking at 350 rpm. Media was carefully aspirated from the mature biofilm and 80 μL of RPMI-1640, or RPMI-1640 supplemented with the amino acid compound solution to be tested, was gently added to the plate. The plate was further incubated for 24 hours at 37° C. shaking at 350 rpm. Media was carefully aspirated and the biofilm was measured by optical density at 600 nm. Twelve replicates were performed for each tested condition and the reported values are normalized to the control (RPMI-1640 media only).

C. albicans biofilms [5] = assay: in vitro sustained inhibition biofilm assay, fungal; assay type: cell-based, Candida albicans; settings: 1% amino acid, p<0.001
Protocol: as §5, §3
as §4, with “The cells were allowed to adhere to the plate for 90 minutes at 37° C. shaking at 350 rpm. Loosely bound cells were washed once with phosphate buffered saline (PBS) and 80 μl of RPMI-1640, or RPMI-1640 supplemented with the amino acid compound solution was added to the plate. The plate was further incubated for 24 hours at 37° C. shaking at 350 rpm.” left out, “The cells were allowed to adhere to the plate for 90 minutes at 37° C. shaking at 350 rpm.” left out, “The plate was further incubated for 24 hours at 37° C. shaking at 350 rpm.” left out
The plate was further incubated for 24 hours at 37° C. with shaking (350 rpm). Media was carefully aspirated and the biofilm was measured by optical density at 600 nm.

[6] = system: bacterial biofilms (MRSA); assay: biofilm assays (sustained inhibition and/or disruption), bacterial; assay type: cell-based, Staphylococcus aureus; settings: in at least one of the two biofilm assays
Protocol: as §2, §3, §6

N[C@@H](Cc1c[nH]c2ccccc12)C(=O)O [Tryptophan, L-tryptophan]
effect on bacterial or fungal biofilms [1]: neutral

N[C@@H](COP(=O)(O)O)C(=O)O [Phosphoserine, O-phospho-L-serine]
Reduce F Biofilm (C. albicans biofilms [2]): ● (a single dot [i.e. ●] signifies minor effect (from about 10 to about 30% change))
inhibition at 1 % [3]: 10 to 30%
anti-biofilm properties against fungal biofilms [4]: reduction by less than two-fold

CC(C)[C@H](N)C(=O)O [Valine, L-valine]
Promote F Biofilm (C. albicans biofilms [5]): ● (a single dot [i.e. ●] signifies minor effect (from about 10 to about 30% change))
inhibition at 1 % [3]: 10 to 30%
effect on fungal biofilm growth [4]: support (improve) fungal biofilm growth

NCCO [Ethanolamine, ethanolamine]
Reduce F Biofilm (C. albicans biofilms [5]): ● (a single dot [i.e. ●] signifies minor effect (from about 10 to about 30% change))
anti-biofilm properties against fungal biofilms [4]: reduction by less than two-fold

Cn1cncc1C[C@H](N)C(=O)O [3-Methylhistidine, 3-methyl-L-histidine]
Promote F Biofilm (C. albicans biofilms [5]): ● (a single dot [i.e. ●] signifies minor effect (from about 10 to about 30% change))
inhibition at 1 % [3]: 10 to 30%
effect on fungal biofilm growth [4]: support (improve) fungal biofilm growth

O=C(O)[C@@H]1CCCN1 [Proline, L-proline]
Reduce F Biofilm (C. albicans biofilms [2]): ● (a single dot [i.e. ●] signifies minor effect (from about 10 to about 30% change))
activation at 1 % ([3]; p<0.001, read-out: Promote B Biofilm): 10 to 30%
anti-biofilm properties against fungal biofilms [4]: reduction by less than two-fold
effect on bacterial biofilm growth [6]: support (improve) bacterial biofilm growth

N[C@@H](Cc1c[nH]cn1)C(=O)O [Histidine, L-histidine]
effect on bacterial or fungal biofilms [1]: neutral

NC(=O)CC[C@H](N)C(=O)O [Glutamine, L-glutamine]
effect on bacterial or fungal biofilms [1]: neutral

CCC(N)C(=O)O (stereo not drawn) [2 Aminobutyric Acid, 2-aminobutyric acid]
effect on bacterial or fungal biofilms [1]: neutral

N[C@@H](Cc1ccc(O)cc1)C(=O)O [Tyrosine, L-tyrosine]
effect on bacterial or fungal biofilms [1]: neutral

Cn1cnc(C[C@H](N)C(=O)O)c1 [1-Methylhistidine, 1-methyl-L-histidine]
effect on bacterial or fungal biofilms [1]: neutral
